In patent US10278942B2 (PELOTON THERAPEUTICS, INC., priority 2015, dated 2019):
pIC50: −log10 of the molar value. Read-outs that look alike come from different tables or passages of the source.

Columns and labels:
[1] = molecular target: T1, HIF-2α HIS TAG-PASB Domain (Homo sapiens, UniProt Q99814); experiment: HIF-2α Scintillation Proximity Assay (SPA); format: binding; settings: for pIC50: read-out: Scintillation Proximity Assay IC50; for IC50: Scintillation Proximity Assay IC50 (nM)
T1 construct: 100 nM HIF-2α HIS TAG-PASB Domain
In short: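 IC50 values rest on percent inhibition, where the sample signal is scaled between high and low controls. Wells contain about 100 μL: compound dispensed as 2 μL of DMSO solution, 88 μL protein-probe mix and 10 μL of beads.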

786-O-Hif-Luc cells = experiment: Luciferase Assay (HIF responsive elements reporter)
Description: A pool of infected cells were then selected against 2 μg/mL of puromycin (P8833, Sigma) for 10 days followed by limited dilution to select single clones. […] Each concentration was tested in triplicate. After about 24 hours, luciferase activity was determined using ONE-Glo Luciferase Assay Reagent (E6110, Promega) following the manufacturer's recommended procedure. EC50 were calculated using Dotmatics software.

[2] = read-out: Mean Luciferase EC50 (nM), 786-O-Hif-Luc cells

T1 sequence (Q99814 240-350 limits assumed): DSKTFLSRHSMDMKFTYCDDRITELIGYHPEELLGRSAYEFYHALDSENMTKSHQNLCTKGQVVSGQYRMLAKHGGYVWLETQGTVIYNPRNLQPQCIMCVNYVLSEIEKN

SMILES | pIC50 [1] | EC50 (786-O-Hif-Luc cells; [2]) [nM] | IC50 [1] [nM] | EC50 (786-O-Hif-Luc cells; read-out: Mean Luciferase EC50 (nM)) [nM]
N#Cc1cc(Oc2ccc(S(=O)(=O)C(F)F)c3c2CC(F)(F)[C@H]3O)ccc1F [Compound 200] | > 7.30 | 50 to 249 | – | –
CS(=O)(=O)c1ccc(Oc2cc(F)cc(C#N)c2)c2c1[C@H](O)[C@H](F)[C@@H]2O [Compound 296] | < 6.00 | > 1000 | – | –
O=S(=O)(c1ccc(Oc2cc(F)cc(Cl)c2)c(Br)c1)C(F)F [Compound 131] | – | > 1000 | 250 to 1000 | –
N#Cc1cncc(Oc2ccc(S(=N)(=O)C(F)(F)F)c3c2CC(F)(F)[C@H]3O)c1 (stereo partly shown) [Compound 314] | > 7.30 | 50 to 249 | – | –
CS(=O)(=O)c1ccc(OC2CCC(F)(F)CC2)c2c1[C@H](O)C(F)(F)[C@@H]2F [Compound 771] | 6.60 to 7.30 | 250 to 1000 | – | –
CS(=O)(=O)c1ccc(OC[C@@H]2CC2(F)F)c2c1[C@H](O)C(F)(F)[C@@H]2F [Compound 768] | 6.60 to 7.30 | 250 to 1000 | – | –
N=S1(=O)c2ccc(Oc3cc(F)cc(F)c3)c(Br)c2C(O)C1(F)F (stereo not shown) [Compound 377] | < 6.00 | 250 to 1000 | – | –
N#Cc1cccc(Oc2ccc(S(=O)(=O)C(F)F)c(C#N)c2Cl)c1 [Compound 40] | 6.00 to 6.60 | > 1000 | – | –
N#CC1(CCOc2ccc(S(=O)(=O)C(F)(F)F)c3c2CC(F)(F)[C@H]3O)COC1 [Compound 749] | 6.00 to 6.60 | > 1000 | – | –
N#CC1(COc2ccc(S(=O)(=O)C(F)(F)F)c3c2CCC3O)CC1 (stereo not shown) [Compound 619] | < 6.00 | > 1000 | – | –
N#Cc1cnn(Cc2ccc(S(=O)(=O)C(F)(F)F)c3c2CC(F)(F)[C@H]3O)c1 [Compound 538] | < 6.00 | > 1000 | – | –
CCS(=O)(=O)c1ccc(Oc2cc(F)cc(Cl)c2)c2c1C(O)CC2 (stereo not shown) [Compound 91] | 6.00 to 6.60 | > 1000 | – | –
Cc1cc(Oc2ccc(S(=O)(=O)C(F)F)c3c2CC(F)(F)[C@H]3O)ccc1F [Compound 198] | > 7.30 | 250 to 1000 | – | –
CS(=O)(=O)c1ccc(Oc2cncc(Br)c2)c2c1[C@H](O)C(F)(F)C2 [Compound 324] | 6.60 to 7.30 | 250 to 1000 | – | –
C[C@]1(C#N)C[C@H](Oc2ccc(S(=O)(=O)C(F)(F)F)c3c2C[C@H](F)[C@H]3O)C1 [Compound 795] | 6.60 to 7.30 | 50 to 249 | – | –
O=C1CCc2c(Oc3cc(F)cc(Cl)c3)ccc(S(=O)(=O)C(F)F)c21 [Compound 18] | 6.60 to 7.30 | > 1000 | – | –
O=S(=O)(c1ccc(OCC2CCC2)c2c1[C@H](O)C(F)(F)C2)C(F)(F)F [Compound 716] | > 7.30 | < 50 | – | –
OC1c2c(I)ccc(OCC(F)F)c2CC1(F)F (stereo not shown) [Compound 681] | 6.60 to 7.30 | 50 to 249 | – | –
CS(=N)(=O)c1ccc(Oc2cc(F)cc(F)c2)c2c1C(O)C(F)(F)C2 (stereo not shown) [Compound 192] | 6.60 to 7.30 | 250 to 1000 | – | –
O=S(=O)(c1ccc(OCC2CC2(F)F)c2c1[C@H](O)C(F)(F)C2)C(F)(F)F (stereo partly shown) [Compound 728] | > 7.30 | < 50 | – | –
CC(C)(C#N)COc1ccc(S(C)(=O)=O)c2c1[C@@H](F)C(F)(F)[C@H]2O [Compound 752] | < 6.00 | > 1000 | – | –
O/N=C1/c2c(C(F)(F)F)ccc(OCC(F)F)c2CC1(F)F [Compound 580] | 6.00 to 6.60 | > 1000 | – | –
N#CN=S1(=O)c2ccc(Oc3cc(F)cc(F)c3)c(C(F)F)c2C(O)C1(F)F (stereo not shown) [Compound 397] | > 7.30 | > 1000 | – | –
O=S(=O)(c1ccc(OC2CCOCC2)c2c1C(O)C(F)(F)C2)C(F)F (stereo not shown) [Compound 782] | 6.60 to 7.30 | 50 to 249 | – | –
O=S(=O)(c1ccc(OCc2ccccc2)c2c1C(O)C(F)(F)C2)C(F)(F)F (stereo not shown) [Compound 663] | 6.60 to 7.30 | 250 to 1000 | – | –
CS(=O)(=O)c1ccc(OCC2CC2(F)F)c2c1[C@H](O)C(F)(F)[C@@H]2F (stereo partly shown) [Compound 756] | > 7.30 | 250 to 1000 | – | –
O=S(=O)(c1ccc(-c2cccc(Cl)c2)c2c1[C@H](O)C(F)(F)C2)C(F)(F)F [Compound 485, (S)-4-(3-chlorophenyl)-2,2-difluoro-7-((trifluoromethyl)sulfonyl)-2,3-dihydro-1H-inden-1-ol] | > 7.30 | > 1000 | – | –

SMILES | pIC50 [1] | EC50 (786-O-Hif-Luc cells; [2]) [nM] | IC50 [1] [nM] | EC50 (786-O-Hif-Luc cells; read-out: Mean Luciferase EC50 (nM)) [nM]
N#CCC1(COc2ccc(S(=O)(=O)C(F)(F)F)c3c2CC(F)(F)[C@H]3O)COC1 [Compound 707] | 6.00 to 6.60 | 250 to 1000 | – | –
N#Cc1cc(F)cc(Oc2ccc(S(=O)(=O)C(F)(F)F)c(C#N)c2Br)c1 [Compound 100] | 6.60 to 7.30 | > 1000 | – | –
CS(=O)(=O)c1ccc(OCC(F)(F)F)c2c1[C@H](O)C(F)(F)[C@@H]2F [Compound 751] | 6.60 to 7.30 | > 1000 | – | –
CS(=O)(=O)c1ccc(Sc2cc(F)cc(Cl)c2)c2c1[C@H](O)C(F)(F)[C@@H]2F [Compound 491, (1S,3R)-4-((3-chloro-5-fluorophenyl)thio)-2,2,3-trifluoro-7-(methylsulfonyl)-2,3-dihydro-1H-inden-1-ol] | > 7.30 | > 1000 | – | –
O=S(=O)(c1ccc(CCO)c2c1[C@H](O)C(F)(F)C2)C(F)(F)F [Compound 496, (S)-2,2-difluoro-4-(2-hydroxyethyl)-7-((trifluoromethyl)sulfonyl)-2,3-dihydro-1H-inden-1-ol] | 6.00 to 6.60 | > 1000 | – | –
O=C1c2c(S(=O)(=O)C(F)F)ccc(Oc3cncc(Cl)c3)c2CC1(F)F [Compound 182] | 6.00 to 6.60 | > 1000 | – | –
N#CN=S(=O)(CF)c1ccc(Oc2cc(F)cc(C#N)c2)c2c1[C@H](O)[C@H](F)C2 (stereo partly shown) [Compound 276] | 6.60 to 7.30 | 50 to 249 | – | –
CCCOc1ccc(C(F)(F)F)c2c1CC(F)(F)[C@H]2O [Compound 704] | > 7.30 | < 50 | – | –
O=Cc1c(S(=O)(=O)C(F)(F)F)ccc(Oc2cc(F)cc(Cl)c2)c1Cl [Compound 112] | > 7.30 | 250 to 1000 | – | –
COCCCOc1ccc(S(=O)(=O)C(F)(F)F)c2c1CC(F)(F)C2O (stereo not shown) [Compound 608] | > 7.30 | 250 to 1000 | – | –
N#Cc1cc(F)cc(Oc2ccc3c(c2C#N)C(N)C(F)(F)S3(=O)=O)c1 (stereo not shown) [Compound 464] | < 6.00 | > 1000 | – | –
CS(=O)(=O)c1ccc(Oc2cc(F)cc(C#N)c2)c2c1[C@H](O)C[C@@H]2F [Compound 295] | 6.60 to 7.30 | 250 to 1000 | – | –
O=S1(=O)c2ccc(Oc3cc(F)cc(Cl)c3)c(Br)c2[C@H](O)C1(F)F [Compound 405] | – | – | 50 to 249 | 50 to 249
O=S(=O)(c1ccc(-c2cccnc2)c2c1[C@H](O)C(F)(F)C2)C(F)(F)F [Compound 558] | < 6.00 | > 1000 | – | –
CS(=O)(=O)c1ccc(Oc2cc(F)cc(C#N)c2)c2c1[C@H](O)C(F)(F)[C@@H]2O [Compound 312] | 6.60 to 7.30 | 250 to 1000 | – | –
N#Cc1cc(F)cc(Oc2ccc3c(c2F)C(O)C(F)(F)S3(=O)=O)c1 (stereo not shown) [Compound 434] | 6.00 to 6.60 | 250 to 1000 | – | –
N[C@@H]1c2c(ccc(Oc3cc(F)cc(F)c3)c2C(F)F)S(=O)(=O)C1(F)F [Compound 401] | > 7.30 | 50 to 249 | – | –
N#Cc1cc(F)cc(Oc2ccc3c(c2C(F)F)C(O)CS3(=O)=O)c1 (stereo not shown) [Compound 374] | 6.00 to 6.60 | > 1000 | – | –
O=S(=O)(c1ccc(Oc2cccc3[nH]ncc23)c2c1C(O)C(F)(F)C2)C(F)(F)F (stereo not shown) [Compound 243] | 6.00 to 6.60 | 250 to 1000 | – | –
CS(=O)(=O)c1ccc(Oc2cc(F)cc(C#N)c2)c2c1[C@H](O)C(F)(Cl)C2 (stereo partly shown) [Compound 270] | 6.60 to 7.30 | 50 to 249 | – | –
O=S(=O)(c1ccc(OC[C@H]2CC2(F)F)c2c1[C@H](O)C(F)(F)C2)C(F)(F)F [Compound 727] | > 7.30 | < 50 | – | –
CCc1ccc(S(=O)(=O)C(F)(F)F)c2c1CC(F)(F)C2O (stereo not shown) [Compound 516] | < 6.00 | > 1000 | – | –
CS(=O)(=O)c1ccc(Oc2cncc(C#N)c2)c2c1[C@H](O)[C@H](F)C2 [Compound 313] | < 6.00 | > 1000 | – | –
CC(Oc1ccc(S(C)(=O)=O)c2c1[C@@H](F)C(F)(F)[C@H]2O)C(F)F (stereo partly shown) [Compound 774] | > 7.30 | 250 to 1000 | – | –
O/N=C1/c2c(C(F)(F)F)ccc(OCCCF)c2[C@@H](F)C1(F)F [Compound 581] | > 7.30 | > 1000 | – | –
C[C@]1(C#N)C[C@@H](Oc2ccc(S(=O)(=O)C(F)(F)F)c3c2C[C@@H](F)[C@H]3O)C1 [Compound 794] | > 7.30 | < 50 | – | –
